Measured values from patent US8592446B2, “[1,10]-phenanthroline derivatives for the treatment of neurodegenerative or haematological diseases” (Noscira, S.A., priority 2007, dated 2013).
Where two headings read alike, the source gives them in different places.

What was measured:
[1] = Chelating ability with Fe (III) (absorbance spectra); type: physicochemical; conditions: PBS 10 mM, pH 7.4, ligand and Fe(III) 200 μM, FIG. 1
Experimental: FIG. 1 is an absorbance spectrum of compounds 4, 7, 8 and 10 in absence and presence of Fe(III). PBS 10 mM, pH 7.4. Concentration of ligand and Fe(III), 200 μM.
Only one line is observed, as the spectra are overlapping (see FIG. 1).

[2] = tested on: SH-SY5Y human neuroblastoma cells; assay: Protection against hydrogen peroxide-induced cell death (LDH); type: cell-based; conditions: compound 1 h before H2O2 100 μM, 24 h; for minimal effective concentration: Homo sapiens, SH-SY5Y, read-out: Protect. H2O2 (minimum concentration for which protection was determined)
Experimental: The aim of this assay is to determine the neuroprotective effect of the compounds of formula (I), when human neuroblastoma cells are exposed to oxidative stress induced by hydrogen peroxide, which is highly deleterious to the cell and its accumulation causes oxidation of cellular targets such as DNA, proteins, and lipids leading to mutagenesis and cell death.
SH-SY5Y human neuroblastoma cells are seeded into 96-well culture plate at a density of 10^4 cells/well. Cells are exposed to different concentrations of the compound one hour before the treatment with H2O2 100 μM during 24 h. 5 mM N-acetylcysteine (NAC), a known anti-oxidant agent was used as a positive control, and preincubated 1 hour before the treatment with H2O2. After 24 h, the medium is removed and cells attached to the bottom of the well are lysed by adding 50 μl of Triton X-100 1% in Krebs-Hepes during 5 minutes at room temperature. For LDH release quantification, Roche cytotoxicity detection kit (Cat. No. 11 644 793 001) was used.

[3] = tested on: SH-SY5Y human neuroblastoma cells; assay: Protection against 6-OHDA-induced cell death, condition A (10% foetal bovine serum); type: cell-based; conditions: preincubated 2 hours, 6-OHDA 75 μM 16 hours, read-out: Protect. 6-OHDA (+ FBS) (minimum concentration with neuroprotective effect)
From the text: The aim of this experiment is to determine the protective effect of the compounds of formula (1) against the toxicity caused by 6-OHDA. This toxin induces a cell death similar to which occurs in Parkinson's disease, destroying dopaminergic neurons (“MPTP and 6-hydroxydopamine-induced neurodegeneration as models for Parkinson's disease: neuroprotective strategies”; Grunblatt E, et al.; J Neurol. 2000 Apr; 247 Suppl 2:II95-102).
Two or three days before the experiment, the SH-SY5Y human neuroblastoma cells are seeded into 96-well culture plate at a density of 10^4 cells/well. Cells are exposed to the treatment with 6-OHDA and, finally, cell death is measured by LDH quantification. As positive control we used NAC.
• A) NAC and the compound of formula (I) are preincubated during 2 hours before the treatment with 6-OHDA 75 μM during 16 hours. The assay is performed in medium containing 10% Foetal bovine serum.
For each compound the minimum concentration of compound of formula (I) at which a neuroprotective effect is shown.

[4] = Screening pharmacokinetic study, plasma and brain (LC-MS/MS); type: in vivo, mice (C57BL6/J); conditions: mice; for Kp / bioavailability / Tmax / half-life / AUC / Cmax: male, C57BL6/J, mouse; for Kp: brain and plasma
Experimental: The objective of this study is to evaluate the oral bioavailability and the plasmatic and brain pharmacokinetic parameters after oral and intravenous administration, thus determining if compounds of formula (I) are able to cross the blood brain barrier (BBB). […] Each compound was solved in appropriate excipients. In the case of oral administration, compound was administered by means of an oral gavage coupled to a syringe. In the intravenous administration animals, the test item was administered by a single injection with a syringe coupled to a 30 G needle.
Two animals were sacrificed (according to internal SOPs and following animal handling and welfare guidelines) at each selected extraction times (i.e. 30 min, 1 h, 2 h, 4 h, 6 h, 8 h and 24 hours after administration), and from each animal, both brain and blood samples were obtained. Plasma was extracted by centrifugation of the blood samples. Each sample time represents two male mice from which samples were obtained.
The method for the analysis of plasma and brain samples involved isolation of the analyte from the biological matrix by protein precipitation or solid-phase extraction followed by analysis using LC-MS/MS. Limits of quantification for these compounds were in the order of 2-10 ng/mL. The software Winnonlin professional version 5.2 was used for the calculation of pharmacokinetic parameters.
In the following tables, the abbreviations have the meaning indicated below: • AUC=Area under the curve • T1/2=Half-life • Tmax=the time after administration of a drug when the maximum plasma concentration is reached; when the rate of absorption equals the rate of elimination • Cmax=maximum plasma concentration of the drug • V. Adm. and Vol. Adm.=volume of administration

SH-SY5Y cells = assay: Neuroprotection against Aβ25-35 toxicity (LDH assay); type: cell-based; conditions: Homo sapiens, pre-treated 1 hour, 200 μM Aβ25-35 24 hours, read-out: Protect. beta-Amyloid25-35 (minimum concentration showing neuroprotection)
Experimental: In order to evaluate potential neuroprotection of compounds, SH-SY5Y cells, cultured in 96-well plates, were pre-treated for 1 hour with the compound at different concentrations and then exposed 24 hours to 200 μM Aβ25-35 (Neosystem) to induce extensive oxidative stress and cell death. The ability of the compound of protecting against this toxicity is then evaluated by measuring intracellular LDH, using the colorimetric LDH assay.
It is widely accepted that the neurotoxic activity of Aβ resides within amino acids 25-35 (see e.g. Yankner B A et al., (1990) Neurotrophic and neurotoxic effects of amyloid β protein: reversal by tachykinin neuropeptides; Science 250:279-282).

[5] = iv, brain AUC relative to plasma AUC, intravenous route, group 1-2 mg/kg, read-out: % AUC
[6] = iv, brain Cmax relative to plasma Cmax, intravenous route, group 1-2 mg/kg, read-out: % Cmax
[7] = po, 20 mg/kg, brain AUC relative to plasma AUC, 20 mg/kg oral route, read-out: % AUC
[8] = po, 20 mg/kg, brain Cmax relative to plasma Cmax, 20 mg/kg oral route, read-out: % Cmax
[9] = plasma, 20 mg/kg oral route (low dose)
[10] = plasma, 200 mg/kg oral route (high dose)
[11] = intravenous route, group 1-2 mg/kg (Compound 4, 8: 1.00; 7: 1.20; 10: 2.00 mg/Kg), brain
[12] = intravenous route, group 1-2 mg/kg (Compound 4, 8: 1.00; 7: 1.20; 10: 2.00 mg/Kg), plasma

SMILES | Ability to complex Fe (III) (change in absorbance spectra) [1] | minimal effective concentration [3] [µM] | Kp [4, 5] | Kp [4, 6] | Kp [4, 7] | Kp [4, 8] | bioavailability [4, 9] [%] | Tmax ([4]; 20 mg/kg oral route, brain) [min] | half-life ([4]; 20 mg/kg oral route, brain) [min] | AUC ([4]; 20 mg/kg oral route, plasma) [ng·h/mL] | Cmax ([4]; 20 mg/kg oral route, plasma) [ng/mL] | Tmax ([4]; 20 mg/kg oral route, plasma) [min] | half-life ([4]; 20 mg/kg oral route, plasma) [min] | Tmax [4, 11] [min] | AUC [4, 12] [ng·h/mL] | Cmax [4, 12] [ng/mL] | Tmax [4, 12] [min] | half-life [4, 12] [min] | Cmax Brain ([4]; 20 mg/kg oral route, brain) [ng/g] | Cmax Brain [4, 11] [ng/g] | also measured
CSc1cc(/C=N/O)nc2c1ccc1cccnc12 [Compound 4, 4-Methylsulfanyl-[1,10]phenanthroline-2-carbaldehyde oxime] | no change in the absorbance spectra | 0.05 | 1.27 | 1.33 | 2.76 | 0.742 | 1.01 | 15 | 39.6 | 7.24 | 20.8 | 15 | 18 | 15 | 36 | 78.7 | 15 | 13.2 | 15.40 | 104.40 | minimal effective concentration [2]: 0.05 µM; Kp ([4]; po, 200 mg/kg, brain AUC relative to plasma AUC, 200 mg/kg oral route, read-out: % AUC): 1.12; Kp ([4]; po, 200 mg/kg, brain Cmax relative to plasma Cmax, 200 mg/kg oral route, read-out: % Cmax): 1.5; bioavailability [4, 10]: 19.1%; Tmax ([4]; 200 mg/kg oral route, brain): 30 min; half-life ([4]; 200 mg/kg oral route, brain): 56.4 min; AUC ([4]; 200 mg/kg oral route, plasma): 1380 ng·h/mL; Cmax ([4]; 200 mg/kg oral route, plasma): 931 ng/mL; Tmax ([4]; 200 mg/kg oral route, plasma): 30 min; half-life ([4]; 200 mg/kg oral route, plasma): 55.2 min; half-life [4, 11]: 23.4 min; Cmax Brain ([4]; 200 mg/kg oral route, brain): 1394.40 ng/g; minimal effective concentration (SH-SY5Y cells): 0.5 µM
COCCOc1cc(/C=N/O)nc2c1ccc1cccnc12 [Compound 8, 4-(2-Methoxy-ethoxy)-[1,10]phenanthroline-2-carbaldehyde oxime] | no change in the absorbance spectra | 0.05 | 0.0439 | 0.0524 | 0.0418 | 0.0621 | 6.67 | 15 | 108 | 325 | 396 | 15 | 234 | 15 | 244 | 690 | 15 | 66.6 | 24.60 | 36.10 | Protect. H2O2 (minimum concentration for which protection was determined) [2]: 50 nM; half-life [4, 11]: 10.8 min; minimal effective concentration (SH-SY5Y cells): 0.5 µM
CC(C)Sc1cc(/C=N/O)nc2c1ccc1cccnc12 [Compound 7, 4-Isopropylsulfanyl-[1,10]phenanthroline-2-carbaldehyde oxime] | no change in the absorbance spectra | 0.05 | 1.04 | 3.71 | 0.278 | 0.417 | 7.11 | 240 | 43.8 | 378 | 106 | 18 | 99.6 | 4.8 | 319 | 104 | 60 | 268 | 19.62 | 386.10 | minimal effective concentration [2]: 0.05 µM; bioavailability [4, 10]: 3.19%; AUC ([4]; 200 mg/kg oral route, plasma): 1700 ng·h/mL; Cmax ([4]; 200 mg/kg oral route, plasma): 1210 ng/mL; Tmax ([4]; 200 mg/kg oral route, plasma): 30 min
